For five compounds, AC50, EC50 and IC50 results are on record in ChEMBL document CHEMBL1201862, “PubChem BioAssay data set” (2004).

Test [1] can be described thus: Luminescence Cell-Based Dose Retest to Confirm Inhibitors of Cancer Stem Cells. [Related pubchem assays (depositor defined):AID2717, AID2721]. It counts as functional. Conditions: Homo sapiens.
In test [2] the test system is Streptococcus. Description: Luminescence Microorganism-Based Dose Response Follow up to Identify Compounds Cytotoxic to Streptococcus. [Related pubchem assays: 1677 (Project Summary), 1915, 1914, 1902 (Retest at Dose), 1900 (Counter Screen), 1662 (Primary HTS)]. Type of test: functional, organism-based.
Test [3] concerns Streptococcus sp. 'group A'. Put plainly: Streptococcus pyogenes SK(-)GAS viability under kanamycin – luminescence, BacTiterGlo, confirmation, counter-screen for streptokinase expression inhibitor project, dose response (AID 1900). Type of test: functional, organism-based. In general terms: The purpose of a counterscreen is to sort out artefacts and off-target activity.
Test [4] can be described thus: viability loss of HMLE_sh_eGFP cells – cell-based, luminescence, counter-screen for HMLE_sh_ECad selective toxicity project, dose response (AID 463074).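 Further: HMLE human mammary epithelial cells expressing control shRNA against eGFP.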 It counts as functional, Homo sapiens.
The next test concerns the target T1, Streptokinase A (Streptococcus pyogenes serotype M1, UniProt P10520).
T1 sequence (P10520 whole entry): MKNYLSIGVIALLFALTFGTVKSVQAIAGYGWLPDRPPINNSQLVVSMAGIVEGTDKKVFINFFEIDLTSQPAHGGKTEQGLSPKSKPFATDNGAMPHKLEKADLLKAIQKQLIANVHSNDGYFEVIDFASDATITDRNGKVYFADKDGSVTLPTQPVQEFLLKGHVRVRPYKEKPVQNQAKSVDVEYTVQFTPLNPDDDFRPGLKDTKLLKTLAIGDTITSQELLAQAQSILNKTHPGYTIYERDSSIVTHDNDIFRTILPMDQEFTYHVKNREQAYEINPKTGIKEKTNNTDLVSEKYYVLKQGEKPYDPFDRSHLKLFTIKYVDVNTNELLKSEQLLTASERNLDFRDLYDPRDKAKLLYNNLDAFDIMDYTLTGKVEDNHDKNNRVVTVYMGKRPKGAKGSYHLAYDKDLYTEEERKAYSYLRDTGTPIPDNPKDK
Put plainly: viability-normalized secreted streptokinase activity reduction – plasminogen activation absorbance, OD405, dose response (AID 1914).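 Further: secreted streptokinase activity via plasminogen activation per viability signal from cell pellet.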 Type of test: functional, Streptococcus pyogenes M1 GAS.

The subject of test [5] is Streptococcus. Put plainly: GAS UMAA2166 growth inhibition – luminescence, BacTiterGlo, counter-screen for streptokinase expression inhibitor project, dose response (AID 1915).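 Further: potency for reduction of bacterial viability or growth.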 Type of test: functional, organism-based.
In test [6] the target is UDP-galactopyranose mutase (Mycobacterium tuberculosis, UniProt P9WIQ1). Description: Inhibitors of Mycobacterium tuberculosis UDP-galactopyranose mutase (UGM) enzyme Measured in Biochemical System Using Plate Reader - 2105-02_Inhibitor_Dose_CherryPick_Activity. [Related pubchem assays (depositor defined):AID504439].
For test [7], the target named is T2, Tyrosine-protein phosphatase non-receptor type 7 (Homo sapiens, UniProt P35236).
T2 sequence (P35236 whole entry): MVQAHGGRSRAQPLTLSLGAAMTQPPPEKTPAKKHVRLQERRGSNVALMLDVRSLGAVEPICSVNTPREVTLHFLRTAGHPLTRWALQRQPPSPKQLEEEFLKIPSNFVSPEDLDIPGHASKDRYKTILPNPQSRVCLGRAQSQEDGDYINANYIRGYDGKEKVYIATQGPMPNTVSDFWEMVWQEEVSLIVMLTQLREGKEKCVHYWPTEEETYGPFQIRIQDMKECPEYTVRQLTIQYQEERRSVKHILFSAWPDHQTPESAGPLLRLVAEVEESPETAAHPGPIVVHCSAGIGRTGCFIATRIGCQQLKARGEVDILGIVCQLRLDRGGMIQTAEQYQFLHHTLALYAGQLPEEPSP
Put plainly: redox-active compounds inhibiting HePTP phosphatase – biochemical, fluorescence, mechanism study (AID 2068). Type of test: functional.

Test [8] deals with Dual specificity protein phosphatase 6 (Rattus norvegicus, UniProt Q64346). Type of test: functional.
In test [9] the target is T3, Tyrosine-protein phosphatase non-receptor type 22 (Homo sapiens, UniProt Q9Y2R2). Description: inhibition of lymphoid tyrosine phosphatase LYP – biochemical, pCAP fluorogenic substrate, fluorescence, set 3, SAR follow-up (AID 449727). It counts as functional.
Test [10] has as its target Tyrosine-protein phosphatase non-receptor type 12 (Homo sapiens, UniProt Q05209). Description: SAR Selectivity Analysis of small molecule inhibitors of PEST using pCAP in a fluorescence assay. [Related pubchem assays (depositor defined):AID1779, AID1784, AID2135]. It counts as functional.
The target in test [11] is T2, Tyrosine-protein phosphatase non-receptor type 7. Put plainly: inhibition of hematopoietic tyrosine phosphatase HePTP – biochemical, set 2, SAR follow-up (AID 449736). It counts as functional.
Test [12] concerns the target T3, Tyrosine-protein phosphatase non-receptor type 22. Description: SAR LYP1 Fluorescent Assay using OMFP substrate for In Vitro dose response studies - Set 3. [Related pubchem assays (depositor defined):AID1779, AID1784, AID2140, AID2686]. It counts as functional.
Test [13] is described as follows: suppression of NO production in INS-1E cells – cell-based, Griess absorbance, dry powder, set 3, dose response (AID 488870). It counts as functional. Conditions: Rattus norvegicus. Background: Griess reagent forms a coloured azo dye with nitrite.
Test [14] has as its target T4, Apoptotic protease-activating factor 1 (Homo sapiens, UniProt O14727).
T4 sequence (O14727 whole entry): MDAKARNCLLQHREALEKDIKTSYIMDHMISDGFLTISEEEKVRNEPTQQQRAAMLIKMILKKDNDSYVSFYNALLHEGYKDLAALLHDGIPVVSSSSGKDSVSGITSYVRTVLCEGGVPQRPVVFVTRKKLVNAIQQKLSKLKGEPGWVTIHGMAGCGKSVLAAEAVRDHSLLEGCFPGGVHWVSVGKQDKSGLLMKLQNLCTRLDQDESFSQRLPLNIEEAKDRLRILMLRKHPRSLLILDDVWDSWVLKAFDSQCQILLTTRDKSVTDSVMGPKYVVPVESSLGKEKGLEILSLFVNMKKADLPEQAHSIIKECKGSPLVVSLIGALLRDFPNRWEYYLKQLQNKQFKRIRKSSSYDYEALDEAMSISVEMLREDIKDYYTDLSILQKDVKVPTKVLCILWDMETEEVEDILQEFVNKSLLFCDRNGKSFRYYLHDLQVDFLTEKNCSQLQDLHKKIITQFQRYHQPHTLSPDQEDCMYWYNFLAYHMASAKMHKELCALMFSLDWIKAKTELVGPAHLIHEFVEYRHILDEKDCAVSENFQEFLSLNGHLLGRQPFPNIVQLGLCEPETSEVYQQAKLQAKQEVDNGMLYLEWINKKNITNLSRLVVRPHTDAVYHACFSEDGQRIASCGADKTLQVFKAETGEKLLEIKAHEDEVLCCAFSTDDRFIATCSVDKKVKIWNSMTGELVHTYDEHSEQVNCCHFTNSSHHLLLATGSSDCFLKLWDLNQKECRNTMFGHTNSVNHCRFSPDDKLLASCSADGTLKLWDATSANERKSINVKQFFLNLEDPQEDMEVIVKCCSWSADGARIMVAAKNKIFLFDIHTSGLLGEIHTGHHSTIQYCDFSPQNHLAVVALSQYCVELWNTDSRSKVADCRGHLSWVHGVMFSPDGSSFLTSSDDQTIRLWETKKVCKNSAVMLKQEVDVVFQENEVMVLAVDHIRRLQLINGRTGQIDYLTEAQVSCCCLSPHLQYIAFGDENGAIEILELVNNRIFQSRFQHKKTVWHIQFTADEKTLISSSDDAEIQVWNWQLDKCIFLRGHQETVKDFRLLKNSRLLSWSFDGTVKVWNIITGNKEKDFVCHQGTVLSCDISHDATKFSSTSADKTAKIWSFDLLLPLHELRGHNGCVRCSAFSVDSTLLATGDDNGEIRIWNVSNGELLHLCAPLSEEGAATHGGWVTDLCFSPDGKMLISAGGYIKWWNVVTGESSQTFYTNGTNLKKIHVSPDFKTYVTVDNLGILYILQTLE
Description: activation of Apaf-1 mediated apoptosis – fluorescent, uHTS hits, dose response (AID 588554). Type of test: functional.

Test [15] addresses Envelope glycoprotein gp160 (Human immunodeficiency virus 1, UniProt Q6QLK5). Description: cell-free HIV fusion peptide-binding blockers – biochemical, uHTS, fluorescence dequenching, […] (AID 1986).

Calls of active or inactive are those of the source.

T3 sequence (Q9Y2R2 whole entry): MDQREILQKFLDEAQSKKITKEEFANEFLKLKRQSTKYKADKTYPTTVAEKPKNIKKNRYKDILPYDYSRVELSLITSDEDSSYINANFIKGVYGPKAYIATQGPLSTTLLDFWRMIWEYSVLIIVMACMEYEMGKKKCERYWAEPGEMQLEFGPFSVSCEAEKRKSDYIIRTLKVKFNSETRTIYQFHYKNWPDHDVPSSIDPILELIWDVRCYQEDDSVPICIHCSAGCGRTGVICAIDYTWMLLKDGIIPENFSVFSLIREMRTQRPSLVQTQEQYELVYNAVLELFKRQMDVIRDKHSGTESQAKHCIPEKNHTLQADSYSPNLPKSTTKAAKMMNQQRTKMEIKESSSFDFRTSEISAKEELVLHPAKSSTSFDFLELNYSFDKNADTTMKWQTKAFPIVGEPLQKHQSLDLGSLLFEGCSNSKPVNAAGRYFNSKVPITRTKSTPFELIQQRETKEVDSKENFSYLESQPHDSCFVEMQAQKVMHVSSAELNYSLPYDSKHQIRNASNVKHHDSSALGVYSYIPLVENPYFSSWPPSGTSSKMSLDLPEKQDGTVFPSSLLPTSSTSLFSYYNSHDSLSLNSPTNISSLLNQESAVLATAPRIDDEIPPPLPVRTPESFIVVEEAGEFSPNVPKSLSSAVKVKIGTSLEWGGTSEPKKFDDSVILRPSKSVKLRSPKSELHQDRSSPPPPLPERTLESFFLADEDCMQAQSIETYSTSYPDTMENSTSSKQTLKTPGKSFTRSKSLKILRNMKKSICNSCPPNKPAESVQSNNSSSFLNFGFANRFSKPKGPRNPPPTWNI
Tyrosine-protein phosphatase non-receptor type 12, sequence (Q05209 whole entry): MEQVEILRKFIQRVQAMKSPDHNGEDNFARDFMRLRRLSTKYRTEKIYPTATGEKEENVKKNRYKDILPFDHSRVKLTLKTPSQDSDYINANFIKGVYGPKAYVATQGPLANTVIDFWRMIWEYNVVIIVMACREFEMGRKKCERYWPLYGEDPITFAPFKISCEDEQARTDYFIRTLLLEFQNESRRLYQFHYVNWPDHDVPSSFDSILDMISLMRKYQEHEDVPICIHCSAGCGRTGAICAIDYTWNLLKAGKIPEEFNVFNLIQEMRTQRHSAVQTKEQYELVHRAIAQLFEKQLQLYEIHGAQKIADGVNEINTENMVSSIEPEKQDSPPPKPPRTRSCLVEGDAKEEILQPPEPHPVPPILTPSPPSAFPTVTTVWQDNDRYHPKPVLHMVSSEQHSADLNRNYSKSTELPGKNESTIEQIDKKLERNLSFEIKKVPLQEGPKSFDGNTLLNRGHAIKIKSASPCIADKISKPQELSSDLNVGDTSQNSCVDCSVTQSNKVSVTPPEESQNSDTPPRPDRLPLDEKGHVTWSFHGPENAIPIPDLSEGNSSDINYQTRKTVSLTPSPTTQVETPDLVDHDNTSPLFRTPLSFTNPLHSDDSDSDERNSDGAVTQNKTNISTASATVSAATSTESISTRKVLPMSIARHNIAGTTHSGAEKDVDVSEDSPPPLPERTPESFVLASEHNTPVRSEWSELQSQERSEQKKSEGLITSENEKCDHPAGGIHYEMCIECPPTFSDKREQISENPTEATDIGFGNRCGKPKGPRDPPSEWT
Envelope glycoprotein gp160, sequence (Q6QLK5 whole entry, the tested form may be a part): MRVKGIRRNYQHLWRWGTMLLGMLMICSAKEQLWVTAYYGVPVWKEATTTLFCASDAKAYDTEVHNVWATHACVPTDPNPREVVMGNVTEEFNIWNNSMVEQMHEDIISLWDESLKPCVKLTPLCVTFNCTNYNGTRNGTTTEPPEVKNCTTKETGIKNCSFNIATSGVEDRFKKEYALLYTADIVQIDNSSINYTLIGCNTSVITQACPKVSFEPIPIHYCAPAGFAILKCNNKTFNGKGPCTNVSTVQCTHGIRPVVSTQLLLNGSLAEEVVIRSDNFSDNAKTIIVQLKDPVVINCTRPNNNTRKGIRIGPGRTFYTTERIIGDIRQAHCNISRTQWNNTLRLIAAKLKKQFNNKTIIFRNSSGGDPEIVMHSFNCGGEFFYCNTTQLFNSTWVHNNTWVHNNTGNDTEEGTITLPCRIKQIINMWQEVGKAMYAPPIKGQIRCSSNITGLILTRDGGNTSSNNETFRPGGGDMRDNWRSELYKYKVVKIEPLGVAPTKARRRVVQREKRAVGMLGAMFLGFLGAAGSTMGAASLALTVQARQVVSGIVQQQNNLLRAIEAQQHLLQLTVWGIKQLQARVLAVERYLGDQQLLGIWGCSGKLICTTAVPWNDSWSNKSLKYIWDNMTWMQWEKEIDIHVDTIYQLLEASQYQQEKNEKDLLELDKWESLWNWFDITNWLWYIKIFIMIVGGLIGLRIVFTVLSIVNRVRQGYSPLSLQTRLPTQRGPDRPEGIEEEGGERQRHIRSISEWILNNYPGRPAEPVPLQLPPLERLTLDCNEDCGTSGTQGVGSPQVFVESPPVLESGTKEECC
UDP-galactopyranose mutase, sequence (P9WIQ1 whole entry): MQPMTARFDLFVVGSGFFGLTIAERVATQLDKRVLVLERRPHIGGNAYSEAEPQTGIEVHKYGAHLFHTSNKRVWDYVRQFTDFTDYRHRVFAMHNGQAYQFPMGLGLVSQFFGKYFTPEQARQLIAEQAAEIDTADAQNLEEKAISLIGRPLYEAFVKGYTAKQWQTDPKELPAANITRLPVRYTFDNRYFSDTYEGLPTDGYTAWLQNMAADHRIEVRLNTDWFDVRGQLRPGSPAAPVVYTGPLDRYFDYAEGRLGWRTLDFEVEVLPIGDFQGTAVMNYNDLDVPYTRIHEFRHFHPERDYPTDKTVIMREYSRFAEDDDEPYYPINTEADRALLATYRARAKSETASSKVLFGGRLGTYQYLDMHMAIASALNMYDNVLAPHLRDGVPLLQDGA
Dual specificity protein phosphatase 6, sequence (Q64346 whole entry): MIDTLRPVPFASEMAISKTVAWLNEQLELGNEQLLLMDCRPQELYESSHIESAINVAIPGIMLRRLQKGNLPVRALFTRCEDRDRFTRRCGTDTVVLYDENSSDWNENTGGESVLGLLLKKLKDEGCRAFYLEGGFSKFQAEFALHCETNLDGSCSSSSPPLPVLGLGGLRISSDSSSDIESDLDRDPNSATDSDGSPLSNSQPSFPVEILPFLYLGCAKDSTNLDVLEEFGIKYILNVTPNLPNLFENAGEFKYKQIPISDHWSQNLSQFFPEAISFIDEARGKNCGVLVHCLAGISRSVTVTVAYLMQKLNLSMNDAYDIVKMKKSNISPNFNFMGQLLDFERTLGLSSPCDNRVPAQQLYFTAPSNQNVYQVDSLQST

On to `CC1CC(C)CN(c2ncc3c(n2)CC(c2ccccc2Cl)CC3=O)C1` (stereo unspecified), for which the half-maximal activity concentration (AC50) (usually the concentration giving half of the maximal activity seen) is 4.15 µM (active) in test [1] and 30.2 µM (active) in test [4]. For the same compound, the concentration for a half-maximal effect (EC50) (as a rule, the concentration giving half of the maximal effect) in the test with Streptococcus [2] is > 500 µM (not active); in test [3] it was 7.25 µM (active); at Streptokinase A, 10.2 µM (active); in the test on Streptococcus [5] it was > 150 µM (not active).
On to `CCCCCCNC(=O)C(C#N)c1nc2ccccc2nc1N1CCOCC1` (stereo unspecified), for which, in [6], the AC50 is 70 µM (active).
Consider `CC(C)(Oc1ccc2sc3ccccc3c2c1)C(=O)O`, for which the IC50 (usually the concentration at which inhibition is half-maximal) is 30.2 µM (active) in test [7]; > 99 µM (inactive) in test [8]; 83.8 µM (active) in test [9]; 9.45 µM (active) in test [10]; 0.45 µM (active) in [11]; 77.5 µM (active) in test [12].
Regarding `C[C@@H]1CN([C@@H](C)CO)C(=O)c2cccc(NC(=O)Nc3cccc4ccccc34)c2O[C@H]1CN(C)C(=O)Nc1ccc2c(c1)OCO2`, the concentration at half-maximal activity (AC50) in test [13] is 51.5 µM (active).
For `O=C(O)CCN1C(=O)/C(=C\c2ccc(OCc3ccccc3)c(OCc3ccccc3)c2)SC1=S`, in test [14], the EC50 is 18.7 µM (active). The concentration for half-maximal inhibition (IC50) in [15] was 10.2 µM (active).
